Test results published in publication PMC9867442, “Indole Derivatives Bearing Imidazole, Benzothiazole-2-Thione or Benzoxazole-2-Thione Moieties—Synthesis, Structure and Evaluation of Their Cytoprotective, Antioxidant, Antibacterial and Fungicidal Activities” (Molecules, 2023).

These compounds were tested on Poria placenta (Pp) (assay: Antifungal agar-plate method). Conditions: concentration 0.0001%, read-out: Antifungal activity (inhibition of mycelial growth).
Assay type: cell-based
Method: (§1) Fungal strains: Coriolus versicolor (Cv), Poria placenta (Pp), Coniophora puteana (Cp) and Gloeophyllum trabeum (Gt) were used as a test organism for the experimental determination of the antifungal activity of 1–11. The fungus were obtained from the collection of the Department of Wood Chemical Technology, Faculty of Forestry and Wood Technology, Poznań, University of Life Sciences, Poland. The fungal growth rates were measured in 90 mm-diameter plastic dishes using the agar-plate method, described by Ważny and Thorton. Five concentrations of gramine and its derivatives in the range of 0.1% to 0.00001% were studied. The compound was applied on the agar (2% agar and 5% malt-extract) prepared on the Petri dish and previously autoclaved. The combination of the compound and fungus was repeated three times. Given sample was centrally inoculated with a 5 mm diameter disc taken from the submargin of 5-day-old malt agar plates. The plates were incubated in darkness at 21 ± 2 °C and 70 ± 5% relative air humidity. The growth duration was determined by the total coverage of the reference plate. The radius of the area covered by the fungus compared with the reference agar plate was employed to calculate the effective doses, ED50, of preservative concentrations retarding the fungal growth rate by 50%.

**Q.** For `CN(C)Cc1c[nH]c2ccccc12` [Compound 1, gramine, reference compound], which inhibition of growth at 0.0001 % is on record?
**A.** Its inhibition of growth at 0.0001 % is 14%.

**Q.** How did the inhibition of growth at 0.0001 % turn out when `c1ccc2c(Cn3ccnc3)c[nH]c2c1` [Compound 2] was run?
**A.** The inhibition of growth at 0.0001 % was 0%.

Same assay, conditions: concentration 0.001%, read-out: Antifungal activity (inhibition of mycelial growth)

**Q.** `CN(C)Cc1c[nH]c2ccccc12` [Compound 1, gramine, reference compound] was tested. Which inhibition of growth at 0.001 % did it give?
**A.** The inhibition of growth at 0.001 % was 25%.

**Q.** With `c1ccc2c(Cn3ccnc3)c[nH]c2c1` [Compound 2] as the compound, how does the inhibition of growth at 0.001 % read?
**A.** Its inhibition of growth at 0.001 % is 20%.

Same assay, conditions: concentration 0.01%, read-out: Antifungal activity (inhibition of mycelial growth)

**Q.** How did the inhibition of growth at 0.01 % turn out when `CN(C)Cc1c[nH]c2ccccc12` [Compound 1, gramine, reference compound] was run?
**A.** The inhibition of growth at 0.01 % was 40%.

**Q.** `c1ccc2c(Cn3ccnc3)c[nH]c2c1` [Compound 2] was tested. Which inhibition of growth at 0.01 % did it give?
**A.** The inhibition of growth at 0.01 % was 47%.

Same assay, conditions: concentration 0.1%, read-out: Antifungal activity (inhibition of mycelial growth)

**Q.** `CN(C)Cc1c[nH]c2ccccc12` [Compound 1, gramine, reference compound] was tested. Which inhibition of growth at 0.1 % did it give?
**A.** The inhibition of growth at 0.1 % was 100%.

**Q.** Which inhibition of growth at 0.1 % does the source give for `c1ccc2c(Cn3ccnc3)c[nH]c2c1` [Compound 2] here?
**A.** Its inhibition of growth at 0.1 % is 100%.

The compounds below were run on Coniophora puteana (Cp) (assay: Antifungal agar-plate method). Conditions: Coniophora puteana, concentration 0.0001%, read-out: Antifungal activity (inhibition of mycelial growth).
Assay type: cell-based
Method: as §1

**Q.** Which inhibition of growth at 0.0001 % does the source give for `CN(C)Cc1c[nH]c2ccccc12` [Compound 1, gramine, reference compound] here?
**A.** The inhibition of growth at 0.0001 % was 41%.

**Q.** Which inhibition of growth at 0.0001 % does the source give for `c1ccc2c(Cn3ccnc3)c[nH]c2c1` [Compound 2] here?
**A.** The inhibition of growth at 0.0001 % was 0%.

Same assay, conditions: Coniophora puteana, concentration 0.001%, read-out: Antifungal activity (inhibition of mycelial growth)

**Q.** Which inhibition of growth at 0.001 % does the source give for `CN(C)Cc1c[nH]c2ccccc12` [Compound 1, gramine, reference compound] here?
**A.** The inhibition of growth at 0.001 % was 40%.

**Q.** How did the inhibition of growth at 0.001 % turn out when `c1ccc2c(Cn3ccnc3)c[nH]c2c1` [Compound 2] was run?
**A.** The inhibition of growth at 0.001 % was 0%.

Same assay, conditions: Coniophora puteana, concentration 0.01%, read-out: Antifungal activity (inhibition of mycelial growth)

**Q.** For `CN(C)Cc1c[nH]c2ccccc12` [Compound 1, gramine, reference compound], which inhibition of growth at 0.01 % is on record?
**A.** The inhibition of growth at 0.01 % was 51%.

**Q.** How did the inhibition of growth at 0.01 % turn out when `c1ccc2c(Cn3ccnc3)c[nH]c2c1` [Compound 2] was run?
**A.** Its inhibition of growth at 0.01 % is 41%.

Same assay, conditions: Coniophora puteana, concentration 0.1%, read-out: Antifungal activity (inhibition of mycelial growth)

**Q.** Which inhibition of growth at 0.1 % does the source give for `CN(C)Cc1c[nH]c2ccccc12` [Compound 1, gramine, reference compound] here?
**A.** The inhibition of growth at 0.1 % was 100%.

**Q.** For `c1ccc2c(Cn3ccnc3)c[nH]c2c1` [Compound 2], which inhibition of growth at 0.1 % is on record?
**A.** Its inhibition of growth at 0.1 % is 100%.

The compounds below were run on Gloeophyllum trabeum (Gt) (assay: Antifungal agar-plate method). Conditions: Gloeophyllum trabeum, concentration 0.0001%, read-out: Antifungal activity (inhibition of mycelial growth).
Assay type: cell-based
Method: as §1

**Q.** For `CN(C)Cc1c[nH]c2ccccc12` [Compound 1, gramine, reference compound], which inhibition of growth at 0.0001 % is on record?
**A.** Its inhibition of growth at 0.0001 % is 12%.

**Q.** How did the inhibition of growth at 0.0001 % turn out when `c1ccc2c(Cn3ccnc3)c[nH]c2c1` [Compound 2] was run?
**A.** The inhibition of growth at 0.0001 % was 20%.

Same assay, conditions: Gloeophyllum trabeum, concentration 0.001%, read-out: Antifungal activity (inhibition of mycelial growth)

**Q.** Which inhibition of growth at 0.001 % does the source give for `CN(C)Cc1c[nH]c2ccccc12` [Compound 1, gramine, reference compound] here?
**A.** The inhibition of growth at 0.001 % was 12%.

**Q.** For `c1ccc2c(Cn3ccnc3)c[nH]c2c1` [Compound 2], which inhibition of growth at 0.001 % is on record?
**A.** Its inhibition of growth at 0.001 % is 20%.

Same assay, conditions: Gloeophyllum trabeum, concentration 0.01%, read-out: Antifungal activity (inhibition of mycelial growth)

**Q.** With `CN(C)Cc1c[nH]c2ccccc12` [Compound 1, gramine, reference compound] as the compound, how does the inhibition of growth at 0.01 % read?
**A.** Its inhibition of growth at 0.01 % is 17%.

**Q.** For `c1ccc2c(Cn3ccnc3)c[nH]c2c1` [Compound 2], which inhibition of growth at 0.01 % is on record?
**A.** Its inhibition of growth at 0.01 % is 40%.

Same assay, conditions: Gloeophyllum trabeum, concentration 0.1%, read-out: Antifungal activity (inhibition of mycelial growth)

**Q.** With `CN(C)Cc1c[nH]c2ccccc12` [Compound 1, gramine, reference compound] as the compound, how does the inhibition of growth at 0.1 % read?
**A.** Its inhibition of growth at 0.1 % is 100%.

**Q.** With `c1ccc2c(Cn3ccnc3)c[nH]c2c1` [Compound 2] as the compound, how does the inhibition of growth at 0.1 % read?
**A.** The inhibition of growth at 0.1 % was 100%.

What follows are compounds tested on Coriolus versicolor (Cv) (assay: Antifungal agar-plate method). Conditions: Trametes versicolor, concentration 0.0001%, read-out: Antifungal activity (inhibition of mycelial growth).
Assay type: cell-based
Method: as §1

**Q.** `CN(C)Cc1c[nH]c2ccccc12` [Compound 1, gramine, reference compound] was tested. Which inhibition of growth at 0.0001 % did it give?
**A.** The inhibition of growth at 0.0001 % was 18%.

**Q.** For `c1ccc2c(Cn3ccnc3)c[nH]c2c1` [Compound 2], which inhibition of growth at 0.0001 % is on record?
**A.** Its inhibition of growth at 0.0001 % is 0%.

Same assay, conditions: Trametes versicolor, concentration 0.001%, read-out: Antifungal activity (inhibition of mycelial growth)

**Q.** How did the inhibition of growth at 0.001 % turn out when `CN(C)Cc1c[nH]c2ccccc12` [Compound 1, gramine, reference compound] was run?
**A.** Its inhibition of growth at 0.001 % is 22%.

**Q.** With `c1ccc2c(Cn3ccnc3)c[nH]c2c1` [Compound 2] as the compound, how does the inhibition of growth at 0.001 % read?
**A.** The inhibition of growth at 0.001 % was 19%.

Same assay, conditions: Trametes versicolor, concentration 0.01%, read-out: Antifungal activity (inhibition of mycelial growth)

**Q.** `CN(C)Cc1c[nH]c2ccccc12` [Compound 1, gramine, reference compound] was tested. Which inhibition of growth at 0.01 % did it give?
**A.** Its inhibition of growth at 0.01 % is 35%.

**Q.** For `c1ccc2c(Cn3ccnc3)c[nH]c2c1` [Compound 2], which inhibition of growth at 0.01 % is on record?
**A.** Its inhibition of growth at 0.01 % is 33%.

Same assay, conditions: Trametes versicolor, concentration 0.1%, read-out: Antifungal activity (inhibition of mycelial growth)

**Q.** With `CN(C)Cc1c[nH]c2ccccc12` [Compound 1, gramine, reference compound] as the compound, how does the inhibition of growth at 0.1 % read?
**A.** Its inhibition of growth at 0.1 % is 100%.

**Q.** `c1ccc2c(Cn3ccnc3)c[nH]c2c1` [Compound 2] was tested. Which inhibition of growth at 0.1 % did it give?
**A.** Its inhibition of growth at 0.1 % is 100%.

Each compound was assayed on Escherichia coli (assay: Antibacterial well-diffusion method). Conditions: 0.1 mL of compound in DMSO, 48 h, 37 °C.
Assay type: cell-based
Method: (§2) The antimicrobial properties of compounds were determined against selected bacteria: Micrococcus luteus, Bacillus subtilis, Escherichia coli and Pseudomonas fluorescens which came from the collection of Pure Cultures of the Facility of Microbiology of the Department of Soil Science and Microbiology of the Poznan University of Life Sciences. The well-diffusion method was used to evaluate the antimicrobial properties of compounds. 6 mL each of liquidized broth medium was poured into sterile Petri dishes and allowed to solidify. After which, two sterile glass rings with a diameter of 0.5 cm were placed on the surface of each plate. Then 20 mL each of liquid broth medium containing suspensions of the tested bacterial strains at a density of 10^7 cells/cm3, obtained from 48-h cultures on broth […], was introduced. After the medium solidified, the glass rings were removed with a pencil, obtaining two wells on each plate. 0.1 mL of compound dissolved in pure dimethyl sulphoxide was introduced into one well, and 0.1 mL of pure dimethyl sulphoxide was introduced into the other well, which was as a control. Each compound was tested in four replicates. The plates were incubated for 48 h in a thermostat at 27 °C for M. luteus, B. subtilis and P. fluorescens cultures, and the E. coli culture at 37 °C. At the end of the incubation, the diameters of growth inhibition of the tested strains were measured using calipers.

**Q.** How did the “Zone of Growth Inhibition” value turn out when `CN(C)Cc1c[nH]c2ccccc12` [Compound 1, gramine, reference compound] was run?
**A.** The value was 0 mm.

**Q.** With `c1ccc2c(Cn3ccnc3)c[nH]c2c1` [Compound 2] as the compound, how does the “Zone of Growth Inhibition” value read?
**A.** Its value is 4 mm.

Each compound was assayed on Bacillus subtilis (assay: Antibacterial well-diffusion method). Conditions: 0.1 mL of compound in DMSO, 48 h, 27 °C.
Assay type: cell-based
Method: as §2

**Q.** How did the “Zone of Growth Inhibition” value turn out when `CN(C)Cc1c[nH]c2ccccc12` [Compound 1, gramine, reference compound] was run?
**A.** The value was 0 mm.

**Q.** How did the “Zone of Growth Inhibition” value turn out when `c1ccc2c(Cn3ccnc3)c[nH]c2c1` [Compound 2] was run?
**A.** Its value is 3.3 mm.

Each compound was assayed on Pseudomonas fluorescens (assay: Antibacterial well-diffusion method). Conditions: 0.1 mL of compound in DMSO, 48 h, 27 °C.
Assay type: cell-based
Method: as §2

**Q.** With `CN(C)Cc1c[nH]c2ccccc12` [Compound 1, gramine, reference compound] as the compound, how does the “Zone of Growth Inhibition” value read?
**A.** The value was 13 mm.

**Q.** For `c1ccc2c(Cn3ccnc3)c[nH]c2c1` [Compound 2], which “Zone of Growth Inhibition” value is on record?
**A.** Its value is 14.7 mm.

What follows are compounds tested on Micrococcus luteus (assay: Antibacterial well-diffusion method). Conditions: Micrococus luteus, 0.1 mL of compound in DMSO, 48 h, 27 °C.
Assay type: cell-based
Method: as §2

**Q.** Which “Zone of Growth Inhibition” value does the source give for `CN(C)Cc1c[nH]c2ccccc12` [Compound 1, gramine, reference compound] here?
**A.** Its value is 0 mm.

**Q.** `c1ccc2c(Cn3ccnc3)c[nH]c2c1` [Compound 2] was tested. Which “Zone of Growth Inhibition” value did it give?
**A.** Its value is 21 mm.
